Laboratory results: US9096624B2 (OSI Pharmaceuticals, LLC, priority 2009, dated 2015)

Key:
FAK [1] = target: T1, FAK (Homo sapiens, UniProt Q05397); test: Cell-based capture ELISA for inhibition of FAK autophosphorylation [pY397] in MiaPaCa2 cells
Protocol: Cell-Based Assays for Inhibition of FAK Autophosphorylation: MiaPaCa2 and U87MG
ELISA kit from Invitrogen (KHO0441).
Reagents Provided in Biosource FAK [pY397]
The cells were then suspended in cell assay medium.

FAK [2] = target: T1, FAK; test: biochemical
FAK [3] = target: T1, FAK; test: Cell-based capture ELISA for inhibition of FAK autophosphorylation [pY397] in U87MG cells
[4] = MIA-PaCa2 cells, + 50% mouse plasma (Table 3), read-out: Mean FAK Cell Mechanistic IC50 + 50% mP MIA-PaCa2
[5] = Mean FAK Cell Mechanistic IC50 + 50% mP U87MG, + 50% mouse plasma

T1 sequence (Q05397 whole entry): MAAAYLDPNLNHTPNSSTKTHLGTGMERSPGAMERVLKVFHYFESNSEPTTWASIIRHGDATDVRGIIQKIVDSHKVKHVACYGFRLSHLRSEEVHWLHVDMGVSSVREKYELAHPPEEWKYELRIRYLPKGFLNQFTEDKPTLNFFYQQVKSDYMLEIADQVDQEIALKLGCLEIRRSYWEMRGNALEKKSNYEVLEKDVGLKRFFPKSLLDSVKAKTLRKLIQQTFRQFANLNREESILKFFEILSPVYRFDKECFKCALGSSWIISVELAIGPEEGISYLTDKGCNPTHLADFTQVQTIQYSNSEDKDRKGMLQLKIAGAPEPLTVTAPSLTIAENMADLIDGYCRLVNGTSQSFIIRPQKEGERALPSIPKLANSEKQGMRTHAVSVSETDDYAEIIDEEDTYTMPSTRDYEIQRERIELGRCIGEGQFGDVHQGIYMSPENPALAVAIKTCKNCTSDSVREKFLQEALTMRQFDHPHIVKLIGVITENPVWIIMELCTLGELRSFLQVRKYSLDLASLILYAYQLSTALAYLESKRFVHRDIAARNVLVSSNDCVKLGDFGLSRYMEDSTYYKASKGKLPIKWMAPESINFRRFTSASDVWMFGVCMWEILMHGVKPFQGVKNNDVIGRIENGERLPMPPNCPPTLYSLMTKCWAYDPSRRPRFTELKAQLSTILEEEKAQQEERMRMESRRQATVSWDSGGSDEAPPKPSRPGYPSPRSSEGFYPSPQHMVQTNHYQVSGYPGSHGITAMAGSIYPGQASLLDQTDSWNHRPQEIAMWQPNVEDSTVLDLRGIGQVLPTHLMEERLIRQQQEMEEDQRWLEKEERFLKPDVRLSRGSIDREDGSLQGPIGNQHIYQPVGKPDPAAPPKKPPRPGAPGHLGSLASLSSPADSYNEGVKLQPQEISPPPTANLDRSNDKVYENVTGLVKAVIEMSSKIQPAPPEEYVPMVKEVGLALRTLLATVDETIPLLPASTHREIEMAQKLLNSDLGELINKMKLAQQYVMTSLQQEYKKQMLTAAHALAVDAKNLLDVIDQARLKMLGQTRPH

Row | SMILES | IC50 (FAK [1]; MIA-PaCa2 cells on fibronectin, 2 h, no plasma, read-out: Mean FAK Cell Mechanistic IC50 MIA-PaCa2) [nM] | IC50 (FAK [1]; MIA-PaCa2 cells, + 50% human plasma, read-out: Mean FAK Cell Mechanistic IC50 + 50% hP MIA-PaCa2) [nM] | IC50 (FAK [2]) [nM] | IC50 (FAK [3]; U87MG FAK Cell Mech IC50 +hP, + human plasma) [nM] | IC50 (FAK [3]; U87MG FAK Cell Mech IC50 +mP, + mouse plasma) [nM] | IC50 (FAK [1]; [4]) [nM] | IC50 (FAK [3]; [5]) [nM]
1 | CCOP(=O)(Cc1ccc(Nc2ncc(C(F)(F)F)c(Nc3ccccc3C(=O)NC)n2)c(OC)c1)OCC [Ex. 53, diethyl (3-methoxy-4-{[4-{[2-(methylcarbamoyl)phenyl]amino}-5-(trifluoromethyl)pyrimidin-2-yl]amino}benzyl)phosphonate] | < 1000 | < 1000 | < 1000 | 160 | 70 |  | 
2 | CCOP(=O)(Cc1ccc(Nc2ncc(C(F)(F)F)c(Nc3ccc([C@H]4CC[C@H](O)CC4)cc3C(=O)NC)n2)cc1)OCC [Example 139, Diethyl (4-{[4-{[4-(trans-4-hydroxycyclohexyl)-2-(methylcarbamoyl)phenyl]amino}-5-(trifluoromethyl)pyrimidin-2-yl]amino}benzyl)phosphonate] |  |  | < 1000 |  |  | < 1000 | 1000 to 10000
3 | CCOP(=O)(Cc1ccc(Nc2ncc(C(F)(F)F)c(Nc3ccc([C@H]4CC[C@H](O)CC4)cc3C(=O)NC)n2)c(OC)c1)OCC [Example 141, Diethyl (4-{[4-{[4-(trans-4-hydroxycyclohexyl)-2-(methylcarbamoyl)phenyl]amino}-5-(trifluoromethyl)pyrimidin-2-yl]amino}-3-methoxybenzyl)phosphonate] |  |  | < 1000 |  |  | < 1000 | < 1000
4 | CCOP(=O)(Cc1ccc(Nc2ncc(C(F)(F)F)c(Nc3ccccc3C(=O)NC)n2)c(OC)c1F)OCC [Example 147, Diethyl (2-fluoro-3-methoxy-4-{[4-{[2-(methylcarbamoyl)phenyl]amino}-5-(trifluoromethyl)pyrimidin-2-yl]amino}benzyl)phosphonate] |  |  | < 1000 |  |  | < 1000 | < 1000
5 | CCOP(=O)(Cc1ccc(Nc2ncc(C(F)(F)F)c(Nc3ccc(-c4cnn(CCCO)c4)c4c3C(=O)N(C)C4)n2)cc1)OCC [Example 156, Diethyl (4-{[4-({7-[1-(3-hydroxypropyl)-1H-pyrazol-4-yl]-2-methyl-3-oxo-2,3-dihydro-1H-isoindol-4-yl}amino)-5-(trifluoromethyl)pyrimidin-2-yl]amino}benzyl)phosphonate] |  |  | < 1000 |  |  | < 1000 | < 1000
6 | CCOP(=O)(Cc1ccc(Nc2ncc(C(F)(F)F)c(Nc3cccc4c3C(=O)N(C)C4C)n2)c(OC)c1)OCC (centres unmarked) [Example 158, Diethyl [4-({4-[(1,2-dimethyl-3-oxo-2,3-dihydro-1H-isoindol-4-yl)amino]-5-(trifluoromethyl)pyrimidin-2-yl}amino)-3-methoxybenzyl]phosphonate] |  |  | < 1000 |  |  | < 1000 | < 1000
7 | CCCP(=O)(CCC)c1cccc(Nc2ncc(C(F)(F)F)c(Nc3ccc([C@H]4CC[C@H](O)CC4)c4c3C(=O)N(C)C4)n2)c1 [Example 171, 7-{[2-{[3-(Dipropylphosphoryl)phenyl]amino}-5-(trifluoromethyl)pyrimidin-4-yl]amino}-4-(trans-4-hydroxycyclohexyl)-2-methyl-2,3-dihydro-1H-isoindol-1-one] |  |  | < 1000 |  |  | < 1000 | < 1000
8 | CCOP(=O)(Cc1ccc(Nc2ncc(C(F)(F)F)c(Nc3cccc4[nH]cc(C)c(=O)c34)n2)c(OC)c1)OCC [Example 204, Diethyl [3-methoxy-4-({4-[(3-methyl-4-oxo-1,4-dihydroquinolin-5-yl)amino]-5-(trifluoromethyl)pyrimidin-2-yl}amino)benzyl]phosphonate] |  |  | < 1000 |  |  | < 1000 | < 1000
9 | CNC(=O)c1ccccc1Nc1nc(Nc2ccc(CP(C)(=O)OCCOC)cc2OC)ncc1C(F)(F)F (centres unmarked) [Example 216, 2-Methoxyethyl (3-methoxy-4-{[4-{[2-(methylcarbamoyl)phenyl]amino}-5-(trifluoromethyl)pyrimidin-2-yl]amino}benzyl)methylphosphinate] |  |  | < 1000 |  |  | < 1000 | < 1000
10 | CCOP(=O)(Cc1ccc(Nc2ncc(C(F)(F)F)c(Nc3cccnc3C(=O)NC)n2)c(OC)c1)OCC [Example 231, Diethyl (3-methoxy-4-{[4-{[2-(methylcarbamoyl)pyridin-3-yl]amino}-5-(trifluoromethyl)pyrimidin-2-yl]amino}benzyl)phosphonate] |  |  | < 1000 |  |  | < 1000 | < 1000
11 | CCOP(=O)(Cc1ccc(Nc2ncc(C(F)(F)F)c(Nc3ccc(C4CCC(N(C)CC)CC4)c4c3C(=O)N(C)C4)n2)c(OC)c1)OCC (centres unmarked) [Example 236, Diethyl [4-({4-[(7-{4-[ethyl(methyl)amino]cyclohexyl}-2-methyl-3-oxo-2,3-dihydro-1H-isoindol-4-yl)amino]-5-(trifluoromethyl)pyrimidin-2-yl}amino)-3-methoxybenzyl]phosphonate] |  |  | < 1000 |  |  | < 1000 | < 1000
12 | CCOP(=O)(Cc1ccc(Nc2ncc(C(F)(F)F)c(Nc3ccc([C@H]4CC[C@H](O)CC4)c4c3C(=O)N(C)C4)n2)cn1)OCC [Example 260, Diethyl [(5-{[4-{[7-(trans-4-hydroxycyclohexyl)-2-methyl-3-oxo-2,3-dihydro-1H-isoindol-4-yl]amino}-5-(trifluoromethyl)pyrimidin-2-yl]amino}pyridin-2-yl)methyl]phosphonate] |  |  | < 1000 |  |  | < 1000 | < 1000
13 | CCOP(=O)(Cc1ccc(Nc2ncc(C(F)(F)F)c(Nc3ccc(-c4cnn(CCCO)c4)c4c3C(=O)N(C)C4)n2)c(OC)c1)OCC [Example 289, Diethyl (4-{[4-({7-[1-(3-hydroxypropyl)-1H-pyrazol-4-yl]-2-methyl-3-oxo-2,3-dihydro-1H-isoindol-4-yl}amino)-5-(trifluoromethyl)pyrimidin-2-yl]amino}-3-methoxybenzyl)phosphonate] |  |  | < 1000 |  |  |  | < 1000
14 | CCOP(=O)(Cc1ccc(Nc2ncc(C(F)(F)F)c(Nc3cccc4c3c(=O)c(C)cn4C)n2)c(OC)c1)OCC [Example 300, Diethyl [4-({4-[(1,3-dimethyl-4-oxo-1,4-dihydroquinolin-5-yl)amino]-5-(trifluoromethyl)pyrimidin-2-yl}amino)-3-methoxybenzyl]phosphonate] |  |  | < 1000 |  |  |  | < 1000
15 | CCOC(=O)Cn1cc(C)c(=O)c2c(Nc3nc(Nc4ccc(CP(=O)(OCC)OCC)cc4OC)ncc3C(F)(F)F)cccc21 [Example 301] |  |  | < 1000 |  |  |  | < 1000
16 | CCOP(=O)(Cc1ccc(Nc2ncc(C(F)(F)F)c(Nc3cccc4c3c(=O)c(C)cn4CC(=O)O)n2)c(OC)c1)OCC [Example 302] |  |  | < 1000 |  |  |  | 1000 to 10000
17 | CCOP(=O)(Cc1ccc(Nc2ncc(C(F)(F)F)c(Nc3cccc4c3c(=O)c(C)cn4CP(=O)(OCC)OCC)n2)c(OC)c1)OCC [Example 303] |  |  | < 1000 |  |  |  | < 1000
18 | CCOC(=O)[C@H]1CC[C@H](c2ccc(Nc3nc(Nc4ccc(CP(=O)(OCC)OCC)cc4OC)ncc3C(F)(F)F)c3c(=O)c(C)c[nH]c32)CC1 [Example 304, Ethyl trans-4-(5-{[2-({4-[(diethoxyphosphoryl)methyl]-2-methoxyphenyl}amino)-5-(trifluoromethyl)pyrimidin-4-yl]amino}-3-methyl-4-oxo-1,4-dihydroquinolin-8-yl)cyclohexanecarboxylate] |  |  | < 1000 |  |  |  | < 1000
19 | CCOC(=O)[C@H]1CC[C@@H](c2ccc(Nc3nc(Nc4ccc(CP(=O)(OCC)OCC)cc4OC)ncc3C(F)(F)F)c3c(=O)c(C)c[nH]c32)CC1 [Example 305, Ethyl cis-4-(5-{[2-({4-[(diethoxyphosphoryl)methyl]-2-methoxyphenyl}amino)-5-(trifluoromethyl)pyrimidin-4-yl]amino}-3-methyl-4-oxo-1,4-dihydroquinolin-8-yl)cyclohexanecarboxylate] |  |  | < 1000 |  |  |  | < 1000
20 | CCOP(=O)(Cc1ccc(Nc2ncc(C(F)(F)F)c(Nc3ccc([C@H]4CC[C@@H](C(=O)O)CC4)c4[nH]cc(C)c(=O)c34)n2)c(OC)c1)OCC [Example 306, Cis-4-(5-{[2-({4-[(diethoxyphosphoryl)methyl]-2-methoxyphenyl}amino)-5-(trifluoromethyl)pyrimidin-4-yl]amino}-3-methyl-4-oxo-1,4-dihydroquinolin-8-yl)cyclohexanecarboxylic acid] |  |  | < 1000 |  |  |  | < 1000
21 | CCOP(=O)(Cc1ccc(Nc2ncc(C(F)(F)F)c(Nc3ccc([C@H]4CC[C@H](C(=O)O)CC4)c4[nH]cc(C)c(=O)c34)n2)c(OC)c1)OCC [Example 307, Trans-4-(5-{[2-({4-[(diethoxyphosphoryl)methyl]-2-methoxyphenyl}amino)-5-(trifluoromethyl)pyrimidin-4-yl]amino}-3-methyl-4-oxo-1,4-dihydroquinolin-8-yl)cyclohexanecarboxylic acid] |  |  | < 1000 |  |  |  | 1000 to 10000
22 | CCOP(=O)(Cc1cnc(Nc2ncc(C(F)(F)F)c(Nc3ccc([C@H]4CC[C@H](O)CC4)c4c3C(=O)N(C)C4)n2)c(OC)c1)OCC [Example 308, Diethyl [(6-{[4-{[7-(trans-4-hydroxycyclohexyl)-2-methyl-3-oxo-2,3-dihydro-1H-isoindol-4-yl]amino}-5-(trifluoromethyl)pyrimidin-2-yl]amino}-5-methoxypyridin-3-yl)methyl]phosphonate] |  |  | < 1000 |  |  |  | 1000 to 10000
23 | CCOP(=O)(Cc1ccc(Nc2ncc(C(F)(F)F)c(Nc3c4c(cc[n+]3[O-])CN(C)C4=O)n2)c(OC)c1)OCC [Example 310] |  |  | < 1000 |  |  |  | 1000 to 10000
24 | CCOP(=O)(Cc1ccc(Nc2ncc(C(F)(F)F)c(Nc3nccc4c3C(=O)N(C)C4)n2)c(OC)c1)OCC [Example 311] |  |  | < 1000 |  |  |  | 1000 to 10000
